Source: PubChem BioAssay (NCI)
Where “and” joins values, the source holds several entries; their conditions need not be identical. Identical values can stand only once.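 How tested: cells in 96-well plates exposed to compound for 48 hours at five concentrations. GI50 is the concentration that inhibits growth by half. Definition used: TGI = concentration required for complete inhibition of growth.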

How the values were obtained:
Assay in all cases: DTP human tumour cell line panel, 48 h
786-0 renal = test system: 786-0 renal
ACHN renal = test system: ACHN renal
CAKI-1 renal = test system: CAKI-1 renal
CCRF-CEM leukemia = test system: CCRF-CEM leukemia
DU-145 prostate = test system: DU-145 prostate
HOP-62 NSCLC = test system: HOP-62 NSCLC
IGROV1 ovarian = test system: IGROV1 ovarian
MDA-MB-231 breast = test system: MDA-MB-231 breast
SK-MEL-2 melanoma = test system: SK-MEL-2 melanoma
SN12C renal = test system: SN12C renal

Work on `ClCc1cccc(Cn2cnc3c(Cl)ncnc32)c1` yielded a GI50 (786-0 renal) of 6.17 µM, a TGI (786-0 renal) of 19.7 µM and a GI50 (ACHN renal) of 2.08 µM. It also gave a TGI (ACHN renal) of 4.09 µM, a GI50 (CAKI-1 renal) of 1.53 µM and a TGI (CAKI-1 renal) of 2.93 µM. The GI50 (CCRF-CEM leukemia) was 1.91 µM, the TGI (CCRF-CEM leukemia) was 3.85 µM and the GI50 (DU-145 prostate) was 11.2 µM. It also gave a TGI (DU-145 prostate) of 24 µM, a GI50 (HOP-62 NSCLC) of 2.6 µM and a TGI (HOP-62 NSCLC) of 5.11 µM. It also gave a GI50 (IGROV1 ovarian) of 9.31 µM, a TGI (IGROV1 ovarian) of 33.5 µM and a GI50 (MDA-MB-231 breast) of 1.99 µM. It also gave a TGI (MDA-MB-231 breast) of 4.04 µM, a GI50 (SK-MEL-2 melanoma) of 22.1 µM and a TGI (SK-MEL-2 melanoma) of 51.1 µM. For the same compound, the GI50 (SN12C renal) was 2.32 µM and the TGI (SN12C renal) was 5.13 µM.
`O=C1NCc2ccc3c(-c4cccc(Cl)c4)c[nH]c3c21` gave a GI50 (786-0 renal) of 0.276 µM, a TGI (786-0 renal) of over 50 µM and a GI50 (ACHN renal) of 0.333 µM. It also gave a TGI (ACHN renal) of over 50 µM, a GI50 (CAKI-1 renal) of 0.205 µM and a TGI (CAKI-1 renal) of over 50 µM. For the same compound, the GI50 (CCRF-CEM leukemia) was 0.192 µM, the TGI (CCRF-CEM leukemia) was over 50 µM and the GI50 (DU-145 prostate) was 0.279 µM. The TGI (DU-145 prostate) was over 50 µM, the GI50 (HOP-62 NSCLC) was 0.324 µM and the TGI (HOP-62 NSCLC) was over 50 µM. The GI50 (IGROV1 ovarian) was 0.316 µM, the TGI (IGROV1 ovarian) was over 50 µM and the GI50 (MDA-MB-231 breast) was 0.838 µM. For the same compound, the TGI (MDA-MB-231 breast) was over 25.7 µM, the GI50 (SK-MEL-2 melanoma) was 0.317 µM and the TGI (SK-MEL-2 melanoma) was over 50 µM. For the same compound, the GI50 (SN12C renal) was 0.438 µM and the TGI (SN12C renal) was over 50 µM.
`C[C@@H]1C[C@@H](O)[C@]2(O)O[C@@H]3C[C@@]4(C=O)[C@@H](CC[C@@H]5[C@@H]4CC[C@]4(C)[C@@H](C6=CC(=O)OC6)CC[C@]54O)C[C@H]3O[C@@H]2O1` was tested, and the GI50 (786-0 renal) was 0.0212 µM and 0.005 µM, the TGI (786-0 renal) was 0.0124 µM and 0.0611 µM and 0.0222 µM and the GI50 (ACHN renal) was 0.00692 µM and 0.005 µM. For the same compound, the GI50 (CAKI-1 renal) was 0.0432 µM, the TGI (CAKI-1 renal) was 0.0486 µM and 0.36 µM and the GI50 (CCRF-CEM leukemia) was 0.005 µM. For the same compound, the TGI (CCRF-CEM leukemia) was 0.0391 µM and 0.0223 µM, the TGI (DU-145 prostate) was 0.111 µM and the GI50 (HOP-62 NSCLC) was 0.0143 µM and 0.005 µM. The TGI (HOP-62 NSCLC) was 0.0576 µM and 0.067 µM and 0.0709 µM, the GI50 (IGROV1 ovarian) was 0.033 µM and 0.00727 µM and the TGI (IGROV1 ovarian) was 0.0474 µM and 0.175 µM and 0.0516 µM. For the same compound, the TGI (MDA-MB-231 breast) was 0.236 µM, the GI50 (SK-MEL-2 melanoma) was 0.052 µM and 0.0898 µM and the GI50 (SN12C renal) was 0.005 µM. For the same compound, the TGI (SN12C renal) was 0.0897 µM and 0.144 µM and 0.0759 µM.
With `CN1CC[C@@H](c2c(O)cc(O)c3c(=O)cc(-c4ccccc4Cl)oc23)[C@@H](O)C1` the GI50 (786-0 renal) was 0.108 µM, the TGI (786-0 renal) was 17.9 µM and the GI50 (ACHN renal) was 0.0346 µM. For the same compound, the TGI (ACHN renal) was 15.6 µM, the TGI (CAKI-1 renal) was over 39.6 µM and the GI50 (CCRF-CEM leukemia) was 0.038 µM and 0.0412 µM. The GI50 (DU-145 prostate) was 0.0774 µM and 0.0902 µM, the GI50 (HOP-62 NSCLC) was 0.117 µM and 0.0384 µM and the TGI (IGROV1 ovarian) was over 100 µM. The GI50 (MDA-MB-231 breast) was 0.168 µM, the TGI (MDA-MB-231 breast) was 0.613 µM and 2.86 µM and the GI50 (SK-MEL-2 melanoma) was 0.124 µM and 0.071 µM. The TGI (SK-MEL-2 melanoma) was 0.215 µM and 0.209 µM and 0.101 µM, the GI50 (SN12C renal) was 0.213 µM and the TGI (SN12C renal) was 13.2 µM.
In the case of `O=C(Nc1ccc(N2CCNCC2)cc1)c1[nH]ncc1Nc1ncnc2sc3c(c12)CCC3`, the GI50 (786-0 renal) was 0.254 µM, the TGI (786-0 renal) was 1.52 µM and the GI50 (ACHN renal) was 0.181 µM. It also gave a TGI (ACHN renal) of 1.16 µM, a GI50 (CAKI-1 renal) of 0.148 µM and a TGI (CAKI-1 renal) of 1.6 µM. The GI50 (CCRF-CEM leukemia) was 0.222 µM, the TGI (CCRF-CEM leukemia) was 1.13 µM and the GI50 (DU-145 prostate) was 0.302 µM. For the same compound, the TGI (DU-145 prostate) was 1.19 µM, the GI50 (HOP-62 NSCLC) was 0.621 µM and the TGI (HOP-62 NSCLC) was 2.79 µM. For the same compound, the GI50 (IGROV1 ovarian) was 0.125 µM, the TGI (IGROV1 ovarian) was 1.38 µM and the GI50 (MDA-MB-231 breast) was 0.333 µM. The TGI (MDA-MB-231 breast) was 2.04 µM, the GI50 (SK-MEL-2 melanoma) was 1.27 µM and the TGI (SK-MEL-2 melanoma) was 3.01 µM. It also gave a GI50 (SN12C renal) of 0.412 µM and a TGI (SN12C renal) of 1.84 µM.
